Source: US12617762B2, “Carboxy derivatives with antiinflamatory properties” (Sitryx Therapeutics Limited, priority 2019, dated 2026)
pEC50, pIC50: −log10 of the molar value. Where two headings read alike, the source gives them in different places.

What was measured:
[1] = test system: IL-1β cytokine output from THP-1s; assay: THP-1 AlphaLISA IL-1β cytokine inhibition assay; type: cell-based; details: for pIC50: Homo sapiens, THP-1, differentiated THP-1 cells, LPS then nigericin
Outline: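 THP-1 cells differentiated with PMA for 72 h, pre-incubated with compound 30 min, then LPS-primed 24 h and Nigericin-stimulated 1 h (37° C./5% CO2). Supernatant IL-1β measured by AlphaLISA; percentage inhibition normalised to +LPS (high) and −LPS (low) plate controls.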

[2] = test system: NRF2 (nuclear factor erythroid 2-related factor 2); assay: NRF2 +/-GSH activation assay (DiscoverX PathHunter NRF2 translocation kit, U2OS cells); type: cell-based; details: for NRF2 activation +GSH Emax / NRF2 activation −GSH Emax: normalised to DMF high control
Outline: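 U2OS PathHunter eXpress cells, 24 h post-plating, treated with compound ±GSH (+GSH arm: 30 min compound–GSH pre-incubation, 6 mM working GSH), then 6 h at 37 °C. NRF2 nuclear translocation read by enzyme-fragment-complementation chemiluminescence; % activation normalised to DMF high and untreated low controls.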

[3] = Hepatocyte stability assay, mouse; type: in vitro ADME; details: mouse, hepatocytes; for hepatocyte CLint at 10 μM: Hepatocyte stability Clint; for half-life at 10 μM: Hepatocyte stability T½
From the text: (§1) Defrosted cryo-preserved hepatocytes (viability >70%) were used to determine the metabolic stability of a compound via calculation of intrinsic clearance (CIint; a measure of the removal of a compound from the liver in the absence of blood flow and cell binding). Clearance data are particularly important for in vitro work as they can be used in combination with in vivo data to predict the half-life and oral bioavailability of a drug.
(§2) The metabolic stability in hepatocytes assay involves a time-dependent reaction using both positive and negative controls. The cells were pre-incubated at 37° C. then spiked with test compound (and positive control); samples were taken at pre-determined time intervals and were analysed to monitor the change in concentration of the initial drug compound over 60 minutes. A buffer incubation reaction (with no hepatocytes present) acted as a negative control and two cocktail solutions, containing compounds with known high and low clearance values (verapamil/7-hydroxycoumarin and propranolol/diltiazem), acted as positive controls. • 1. The assay was run with a cell concentration of 0.5×10^6 cells/mL in Leibovitz buffer. • 2. All compounds and controls were run in duplicate. • 3. Compound concentration was 10 μM. • 4. All compounds and controls were incubated with both cells and buffer to show turnover was due to hepatic metabolism. • 5. All wells on the incubation plate had 326.7 μL of either cells or buffer added. • 6. Prior to assay, cell and buffer-only incubation plates were preincubated for 10 mins at 37° C. • 7. The assay was initiated by adding compounds, 3.3 μL of 1 mM in 10% DMSO—90% Buffer; final DMSO concentration was 0.1%. • 8. Samples were taken at regular timepoints (0, 5, 10, 20, 40, 60 min) until 60 mins. • 9. Sample volume was 40 μL and was added to 160 μL of crash solvent (acetonitrile with internal standard) and stored on ice. • 10. At the end of the assay, the crash plates were centrifuged at 3500 rpm for 20 mins at 4° C. • 11. 80 μL of clear supernatant was removed and mixed with 80 μL of deionised water before being analysed by LC-MS/MS.
(§3) Raw LC-MS/MS data was exported to, and analysed in, Microsoft Excel for determination of intrinsic clearance. The percentage remaining of a compound was monitored using the peak area of the initial concentration as 100%. Intrinsic clearance and half-life values were calculated using a graph of the natural log of percentage remaining versus the time of reaction in minutes.

[4] = Hepatocyte stability assay, human; type: in vitro ADME; details: human, hepatocytes; for hepatocyte CLint at 10 μM: Hepatocyte stability Clint; for half-life at 10 μM: Hepatocyte stability T½
From the text: as §1, §2, §3

[5] = +GSH, 30 minute compound-GSH pre-incubation, read-out: NRF2 activation +GSH EC50
[6] = −GSH, U2OS PathHunter cells, 6 hours compound treatment, read-out: NRF2 activation −GSH EC50

SMILES	pIC50 [1]	pEC50 [2, 5]	NRF2 activation +GSH Emax ([2]; +GSH) [%]	pEC50 [2, 6]	NRF2 activation −GSH Emax ([2]; −GSH) [%]	hepatocyte CLint at 10 μM [3] [µL/min/1e6 cells]	half-life at 10 μM [3] [min]	hepatocyte CLint at 10 μM [4] [µL/min/1e6 cells]	half-life at 10 μM [4] [min]	IL-1β lowering, result in words ([1]; THP-1 IL-1β assay)
C=C(Cc1nc(Cc2cc(Cl)cc(Cl)c2)no1)C(=O)O [Example 16, 2-((3-(3,5-dichlorobenzyl)-1,2,4-oxadiazol-5-yl)methyl)acrylic acid]	4.34	4.63	149	4.71	180	29	45	< 4	> 362	
C=C(Cc1nc(Cc2ccc3ccccc3c2)no1)C(=O)O [Example 9, 2-((3-(naphthalen-2-ylmethyl)-1,2,4-oxadiazol-5-yl)methyl)acrylic acid]	4.26	4.16	44	4.37	51	41	25	7	181	
C=C(Cc1nc(C2(c3ccc(OC(F)(F)F)cc3)CC2)no1)C(=O)O [Example 49, 2-((3-(1-(4-(trifluoromethoxy)phenyl)cyclopropyl)-1,2,4-oxadiazol-5-yl)methyl)acrylic acid]	4.91	4.24	56	4.31	109	15	86	8	172	
C=C(Cc1nc(CCCCCCCC(F)(F)F)no1)C(=O)O [Example 11, 2-((3-(8,8,8-trifluorooctyl)-1,2,4-oxadiazol-5-yl)methyl)acrylic acid]	5.09	4.88	149	4.94	185	56	18	30	42	
C=C(Cc1nc(-c2ccc(CCCCC)cc2)no1)C(=O)O [Example 23, 2-((3-(4-pentylphenyl)-1,2,4-oxadiazol-5-yl)methyl)acrylic acid]	5.34	5.66	162	5.80	209	> 460	< 3	321	5	
C=C(Cc1nc(C2(c3ccc(OC)cc3)CC2)no1)C(=O)O [Example 45, 2-((3-(1-(4-methoxyphenyl)cyclopropyl)-1,2,4-oxadiazol-5-yl)methyl)acrylic acid]	4.41	< 4.00	9	< 4.00	55	33	49	8	178	
C=C(Cc1nc(C(F)(F)c2ccc(OC(F)(F)F)cc2)no1)C(=O)O [Example 94, 2-((3-(difluoro(4-(trifluoromethoxy)phenyl)methyl)-1,2,4-oxadiazol-5-yl)methyl)acrylic acid]	4.69	4.86	183	5.10	208	29	66	< 3	> 460	
C=C(Cc1nc(C2(c3cc(Cl)c(F)c(Cl)c3)CC2)no1)C(=O)O [Example 133, 2-((3-(1-(3,5-dichloro-4-fluorophenyl)cyclopropyl)-1,2,4-oxadiazol-5-yl)methyl)acrylic acid]	5.80	5.38	281	5.46	234	338	4	73	19	
C=C(Cc1nc(CCCCCCC(C)(F)F)no1)C(=O)O [Example 31, 2-((3-(7,7-difluorooctyl)-1,2,4-oxadiazol-5-yl)methyl)acrylic acid]	< 4.00	4.39	127	4.46	178	42	27	5	246	not effective
C=C(Cc1nc(-c2ccc(OCCCC(F)(F)F)cc2)no1)C(=O)O [Example 146, 2-((3-(4-(4,4,4-trifluorobutoxy)phenyl)-1,2,4-oxadiazol-5-yl)methyl)acrylic acid]	< 4.50	4.84	125	4.88	177	194	8	36	41	
C=C(Cc1nnc(CCCCCCCC)o1)C(=O)O [Example 2, 2-((5-octyl-1,3,4-oxadiazol-2-yl)methyl)acrylic acid]	4.43	4.57	169	4.72	176	74	19	95	15	
C=C(Cc1nc(C2(c3ccc(Cl)cc3)CCC2)no1)C(=O)O [Example 25, 2-((3-(1-(4-chlorophenyl)cyclobutyl)-1,2,4-oxadiazol-5-yl)methyl)acrylic acid]	4.19	< 4.00	31	< 4.00	32	17	90	12	104	
C=C(Cc1nc(Cc2ccc(CCCCC)cc2)no1)C(=O)O [Example 28, 2-((3-(4-pentylbenzyl)-1,2,4-oxadiazol-5-yl)methyl)acrylic acid]	5.11	5.40	201	5.52	264	> 460	< 3	103	12	
